Data as given in paper PMC6173696, “Structural properties of a haemophore facilitate targeted elimination of the pathogen Porphyromonas gingivalis” (Nature Communications, 2018).
Like-named read-outs stand apart in the source and are kept apart here.

What was measured:
[1] = target: T1, HusA (Porphyromonas gingivalis, UniProt Q7MSY3); assay: Tryptophan fluorescence quenching assay, HusA wild-type; format: binding
T1 sequence (Q7MSY3 24-218): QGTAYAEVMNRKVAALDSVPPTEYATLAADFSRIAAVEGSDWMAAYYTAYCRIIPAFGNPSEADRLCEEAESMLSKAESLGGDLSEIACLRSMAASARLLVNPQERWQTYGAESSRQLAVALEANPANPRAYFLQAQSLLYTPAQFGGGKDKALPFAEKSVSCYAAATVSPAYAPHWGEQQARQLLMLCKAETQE
Protocol: (§1) The quenching of intrinsic tryptophan fluorescence of HusA upon porphyrin additions was measured using a Carey Eclipse Fluorescence Spectrophotometer (Agilent) set to a photo multiplier effect (PME) of 850. A 5-mm path length quartz cuvette was used and all spectra were acquired at room temperature. Excitation was set to 295 nm and emission was measured from 300 nm to 500 nm using excitation/emission slit widths of 5 nm. Binding assays were performed at a protein concentration of 1 μM HusA in standard buffer at a working volume of 0.5 mL. […] The fluorescence quenching of HusA by PPIX was investigated in a similar manner with the following difference: the fluorescence intensities of ten 1 μM HusA samples were measured each with increasing amounts of PPIX after a 2-h incubation period to allow equilibrium to be reached. See Supplementary Methods for correction for inner filter effect and curve fitting. […]
Correction of inner filter effect and curve fitting in tryptophan fluorescence quenching assays The concentration of NATA was chosen such that the raw fluorescence intensity was similar to the […] concentrations of HusA and mutants used. The same molarity titrants of porphyrin were titrated into NATA as were added into HusA in the control reactions. Fluorescence intensity was scaled with respect to the starting florescence and corrected for the inner filter effect. Fluorescence at 335 nm was used to fit binding curves.
The correction method is based on Fonin AV., et al.26, noting that a Cary Eclipse spectrofluorimeter […]
performed to measure the contribution to the decrease in fluorescence due to the inner filter effect and this effect was scaled to the starting fluorescence values as fractional changes. The measured fluorescence at each titration point for each of the porphyrin titrations into protein was then adjusted for this contribution. Fluorescence at 335 nm was used to fit binding curves. Association constant, Ka, was fitted using the following equation in Origin, assuming a single binding site. A dissociation constant, Kd, was calculated by taking the inverse of the Ka.
Xobs = XA×f A+XAB×f AB (1) where XA is the corrected fluorescence, fA=1-fAB, fAB=x/(Bt), x=(-b-sqrt(b2-4×c))/2, b=-(1/Ka+At+Bt), c=Bt×At, Bt=total concentration of protein, At=total concentration of ligand.
To aid comparison of the different titrations, the corrected fluorescence was scaled to the starting fluorescence in the absence of porphyrins (i.e. all fluorescence curves have a starting value of one

[2] = test system: P. gingivalis W83 within gingival H413 epithelial cells; assay: Intracellular killing assay in infected H413 epithelial cells; format: cell-based, Porphyromonas gingivalis; settings: H413 cells infected by W83, CFU count
Source text: (§2) Fig. 5 A prototype DPIX-conjugated antibiotic binds HusA and inhibits P. gingivalis. a The chemical structure of the deuteroporphyrin-lysine-metronidazole adduct, P8. b NMR signal intensity changes (black) and ^1H^N CSPs (red/green) for HusA upon addition of P8 (measured from ^15N-HSQC spectra shown in Supplementary Figure 21). c In silico docking of P8 to the energy minimized structure of HusA (conformer set 1), with residues experiencing NMR signal loss (orange) or CSPs (red/green) mapped to the structure (colouring as described in Fig. 2d). d Scaled and corrected fluorescence at 335 nm during titration of 1 μM of HusA with increasing concentrations of P8, haemin or DPIX. e Comparison of P8 inhibitory effect towards P. gingivalis wild-type W83 and husA mutants using checkerboard analysis. Serial dilutions of antibiotics (horizontal axis) were applied to a 96-well plate with different P. gingivalis strains (vertical axis). Serial dilutions of DPIX were also supplemented into wild-type W83 group to evaluate the competitive effect against P8. Absorption at OD600 of each well was recorded after 24 h of incubation. The OD600 of each strain grown in the absence of antibiotics was defined as 100% growth, which was applied to normalise the reading collected from other wells. […] Recovered bacteria were determined by CFU count. […]

[3] = test system: P. gingivalis wild-type W83; assay: P8 growth inhibition under iron restriction (100 µM dipyridyl); format: cell-based, Porphyromonas gingivalis; settings: P8 at 1 µM (below the MIC)
Source text: as §2

[4] = target: T2, HusA W130N (Porphyromonas gingivalis, UniProt Q7MSY3, W130N); assay: Tryptophan fluorescence quenching assay, HusA mutant W130N; format: binding
T2 sequence (Q7MSY3 24-218 W130N): T1 sequence (Q7MSY3 24-218)

[5] = target: T3, HusA Y164A (Porphyromonas gingivalis, UniProt Q7MSY3, Y164A); assay: Tryptophan fluorescence quenching assay, HusA mutant Y164A; format: binding
T3 sequence (Q7MSY3 24-218 Y164A): T1 sequence (Q7MSY3 24-218)
Protocol: as §1
Correction of inner filter effect and curve fitting in tryptophan fluorescence quenching assays The concentration of NATA was chosen such that the raw fluorescence intensity was similar to the 10 uM concentrations of HusA and mutants used. […] Fluorescence intensity was scaled with respect to the starting florescence and corrected for the inner filter effect. Fluorescence at 335 nm was used to fit binding curves. […]

[6] = format: physicochemical; settings: aqueous haemin, 5 µM
Protocol: Spectra were recorded in 0.1 M NaCl with 0.1 M of the following buffers: citrate, pH 5.0; BisTris-HCl, pH 5.5; BisTris-HCl, pH 5.75: BisTris-HCl, pH 6.0; sodium phosphate, pH 6.5; sodium phosphate, pH 7.0; sodium phosphate, pH 7.5; Tris-HCl, pH 8.0; sodium borate, pH 9.0; sodium borate/NaOH, pH 9.8; sodium carbonate, pH 10.0 (not all titration points were collected for each protein)

[7] = target: T4, p22HBP (Mus musculus, UniProt Q9R257); assay: Acid-alkaline transition of UV-vis spectra, haemin bound to p22HBP; format: physicochemical; settings: haemin bound to murine p22HBP
T4 sequence (Q9R257 1-190): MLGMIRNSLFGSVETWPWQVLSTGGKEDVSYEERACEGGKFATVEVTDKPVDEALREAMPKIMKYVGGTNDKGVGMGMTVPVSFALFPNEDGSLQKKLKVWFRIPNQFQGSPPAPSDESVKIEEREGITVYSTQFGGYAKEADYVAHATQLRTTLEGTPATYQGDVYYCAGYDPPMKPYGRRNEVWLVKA
Protocol: Supplementary Figure 16. Acid-alkaline transition in UV-vis spectra of various haem binding proteins. (Top) UV-visible spectra (units of wavelength are nm) used to generate the pH titration curves shown in Figure 2h and in the bottom panel. (Bottom) Acid-alkaline titration of 5 µM haemin in presence of 7 µM IsdH, 5 µM IsdB, 7 µM IsdH(Y642A) and 7 µM p22HBP. All proteins are in holo form. See Fig 2h legend for buffer conditions. Absorbance A600–A650 values are plotted except for IsdH and IsdB, for which A630–A600 is plotted (to avoid negative values). […]

[8] = target: HusA; settings: previously reported; now considered far weaker; cited from earlier work

Structure (SMILES) | Kd ([1]; estimate by comparison to other porphyrins, not fitted, UV-visible absorption and fluorescence data, read-out: affinity for HusA) | killing of intracellular P. gingivalis [2] | susceptibility of W83 under iron restriction [3] | Kd ([1]; HusA wild-type 1 µM, fit to 1:1 binding model) | reduction of haemin affinity compared to wild-type [4] | reduction of haemin affinity compared to wild-type [5] | pKa of acid-alkaline transition [6] | pKa of acid-alkaline transition [7] | Kd [8]
CC1=Cc2cc3[nH]c(cc4nc(cc5[nH]c(cc1n2)cc5C)C(C)=C4CCC(=O)N[C@@H](CCCCNC(=O)OC(C)(C)C)C(=O)NCCn1c([N+](=O)[O-])cnc1C)c(CCC(=O)O)c3C [P8] | 1 to 10 µM | more effective than metronidazole | susceptible | – | – | – | – | – | –
C=CC1=C(C)c2cc3[nH]c(cc4nc(cc5[nH]c(cc1n2)c(C)c5CCC(=O)O)C(CCC(=O)O)=C4C)c(C)c3C=C.[Fe+3] [haemin] | – | – | – | 7.3 ± 1.1 µM | > 50% | > 50% | 6.7 | 6.2 | ~0.002 µM
